This test relates to perceived human salt intensity. Kind of test: Human salty taste test: effect on perceived salt intensity (experiments by the inventors). The class given is in vivo. The text has this: Unlike other mammals, amiloride only slightly reduces the intensity of sodium chloride taste, i.e., by about 15-20% when used at concentrations that specifically modulate ENaC function (Halpern, B. P. (1998) Neuroscience and Behavioral Reviews. 23: 5-47). […] Thus, additional non-ENaC genes are likely involved in human salty taste.

We go through 2 compounds from patent publication US10191050B2, “Rationale, methods, and assays for identifying human and non-human primate taste specific genes and use thereof in taste modulator and therapeutic screening assays” (SENOMYX, INC., priority 2007, dated 2019).

The structures appear in SMILES notation.

Consider `N=C(N)NC(=O)c1nc(Cl)c(N)nc1N` [amiloride], for which the “effect on perceived human salt intensity” value (tested at 300-fold above IC50 for alpha beta gamma ENaC (10-fold over IC50 for delta beta gamma ENaC)) is recorded as “did not elicit a significant effect”.

Turning to `NC(=Nc1ccccc1)NC(=O)c1nc(Cl)c(N)nc1N` [phenamil], the “effect on perceived human salt intensity” value (tested at 3000-fold above IC50 for alpha beta gamma ENaC (100-fold over IC50 for delta beta gamma ENaC)) is “did not elicit a significant effect”.
